{"source": "patent US20080171059A1", "about": "“METHODS AND COMPOSITIONS FOR INCREASED PRIMING OF T-CELLS THROUGH CROSS-PRESENTATION OF EXOGENOUS ANTIGENS” (priority 2006, published 2008)", "key": {"[1]": {"system": "CD8+ T cell line specifically recognizing the N9V/HLA-A*0201 complex", "experiment": "Cross-presentation assay: yeast-fed monocyte-derived DCs stimulate IFNγ secretion in co-cultured N9V-specific CD8+ T cells", "format": "cell-based, human", "experimental": "An interferon gamma (IFNY) secretion cell capture FACS assay was performed on the T cells to quantify the percentage of cells that had been activated as a result of cross-presentation by the DCs.\nThe monocytes were aliquoted into vials and cryopreserved in 90% fetal bovine serum (FBS), 10% DMSO. […] Unless otherwise indicated, media components were from Hyclone (Logan, Utah); low endotoxin products were chosen where available. 4-5×10^6 monocytes were cultured per well of a 6-well plate in 2.5 ml C10 medium supplemented with 1000 U/ml each of interleukin-4 and granulocyte-macrophage colony stimulating factor (C10GF; cytokines from R & D Systems, Minneapolis, Minn.). After 2 and 4 days of culture, each well was topped up with 0.5 ml C10GF; after 6 days of culture, floating and loosely adherent monocyte-derived DCs were harvested by gentle resuspension.\nCross-presentation Assay After 6 days of differentiation, monocyte-derived DCs were seeded in 96-well round bottom plates at 1 or 2×10^5 cells in 200 μl C10GF per well. Appropriate numbers of yeast cells (measured by optical density at 600 nm with 10D≈10^7/ml) were rendered non-viable by UV-irradiation (2×1000 J/m^2 in a Stratalinker, Stratagene, La Jolla, Calif.), pelleted by centrifugation and added to the DCs. For inhibition experiments, DCs were pre-incubated with lactacystin (5 μM; Calbiochem, San Diego, Calif.) or chloroquine (25 μM) for one hour before yeast samples were introduced. […] Following 4 h of co-culture, the contents of each well were transferred to tubes for labeling with Miltenyi's IFNY secretion assay kit (Bergisch Gladbach, Germany) according to the recommended protocol. […] The percentage of CD8^+ cells that were IFNY+ was determined by flow cytometry (Coulter Epics XL, Fullerton, Calif. or BD FACSCalibur). The cut-off PE fluorescence was set for each experiment such that about 0.5% of T cells were IFNY+ in a negative control sample (no yeast or peptide).\nSurface Display Antigen Dose Normalization In experiments where different linkers were used to surface-display antigen, several cultures of each yeast sample were induced, and cultures with mean antigen levels within 10% of each other were selected to minimize the effect of variable antigen dose on cross-presentation. […] Therefore, each yeast sample was mixed with the appropriate amount of EBY100 yeast to normalize the antigen dose while maintaining the 20:1 ratio of yeast to DCs."}, "[2]": {"molecular_target": "Cathepsin S (Homo sapiens, UniProt P25774)", "sequence (P25774 115-331)": "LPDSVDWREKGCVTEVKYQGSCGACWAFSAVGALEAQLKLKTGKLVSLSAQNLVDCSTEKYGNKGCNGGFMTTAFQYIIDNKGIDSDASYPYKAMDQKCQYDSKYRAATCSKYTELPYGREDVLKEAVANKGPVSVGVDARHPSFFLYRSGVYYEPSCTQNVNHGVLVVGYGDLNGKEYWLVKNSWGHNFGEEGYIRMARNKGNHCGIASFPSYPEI", "experiment": "Cleavage of antigen sequences by Cathepsin S", "format": "biochemical", "settings": "cleavage positions MQ|AE and NLVPMVA|TV"}}, "data": [{"molecule": "CC(=O)N[C@@H](CSC(=O)[C@]1([C@@H](O)C(C)C)NC(=O)[C@H](C)[C@@H]1O)C(=O)O", "note": "[lactacystin]", "values": [{"measurement": "Effect of inhibitor on cross-presentation of surface-displayed antigen", "setting": "[1]; EBYN9V yeast 20:1, lactacystin 5 μM or chloroquine 25 μM added one hour before yeast", "result": "strongly inhibited"}, {"measurement": "Effect of inhibitor on cross-presentation of strains with deleted, C1 and (C1)4 linkers", "setting": "[1]; all three integrated strains, lactacystin 5 μM or chloroquine 25 μM", "result": "inhibited"}, {"measurement": "Effect of inhibitor on cross-presentation of intracellular antigen", "setting": "[1]; yeast expressing Aga2p-N9V intracellularly 20:1, lactacystin 5 μM or chloroquine 25 μM", "result": "inhibited"}]}, {"molecule": "NLVPMVATV [cytomegalovirus epitope, HLA-A*0201-restricted peptide derived from CMV phosphoprotein pp 65]", "values": [{"measurement": "Cleavage by Cathepsin S", "setting": "[2]", "result": "cleaved rapidly"}]}, {"molecule": "ARNLVPMVATVQGQN [15-mer extended CMV pp 65 peptide containing N9V, positive control]", "values": [{"measurement": "Percentage of IFNγ+ T cells", "setting": "[1]; positive control, 1 μM extended peptide", "result": "45-70%"}]}]}
